Paper PMC5161367, “Discovery of Novel Small Molecule Inhibitors of VEGF Expression in Tumor Cells Using a Cell-Based High Throughput Screening Platform” (PLoS ONE, 2016)

How the values were obtained:
[1] = target: T1, phosphodiesterase 5 (PDE5) (Homo sapiens, UniProt O76074); assay: PDE5 in vitro enzyme assay (fluorescence polarization); type: biochemical; settings: tadalafil positive control
T1 construct: purchased CalBiochem 524715
Description: PDE5 activity was measured with a PDE5 assay kit (cat#: R8039, Molecular Devices) according to manufacturer’s instructions. PDE5 enzyme was purchased from CalBiochem (cat#: 524715). Tadalafil (Cialis® was used as a positive control. Assays were performed in 96-well plates in duplicate, the fluorescence polarization was determined on a ViewLux microplate reader (Perkin Elmer) using the instrument settings recommended by the manufacturer. (DOC) Click here for additional data file.
PDE5 activity was quantified usinga PDE5 assay kit (cat#: R8039, Molecular Devices) according to manufacturer’s instructions. PDE5 enzyme was purchased from CalBiochem (cat#: 524715). The positive control, tadalafil (Cialis®), was synthesized in house. Assays were performed in 96-well plates in duplicate and fluorescence polarization was determined on a ViewLux microplate reader (Perkin Elmer) using the instrument settings recommended by the manufacturer.

VEGF mRNA UTRs reporter = assay: UTR-selectivity luciferase reporter cell lines (VEGF vs HIF-1α, DPPIV UTRs); type: cell-based, human; settings: HEK 293 luciferase reporter stable cell lines
From the text: (§1) Selective inhibition by PTC-510 of reporter gene expression mediated by VEGF mRNA UTRs. All luciferase reporter stable cell lines used in this study were generated from HEK 293 cells transfected with the luciferase reporter gene flanked with the UTRs derived from each target gene. HIF-1α: hypoxia Inducible Factor 1 alpha; DPPIV: dipeptidyl peptidase IV. (DOC) Click here for additional data file.
as §1, with “[picture] Selective” for “Selective”, “IV.” for “IV. (DOC) Click here for additional data file.”

[2] = Microsome metabolism - dog; type: in vitro ADME
[3] = Microsome metabolism - rat; type: in vitro ADME
Description: (§2) Pharmacological characterization of PTC-510. Pharmacological assays were performed to characterize PTC-510, including metabolic stability in human, primate mouse and rat liver microsomes; absorption in Caco-2 cells; in vitro effect on hERG ion channel; pharmacokinetics; and acute toxicity in the rat.

hERG ion channel = hERG ion channel (Homo sapiens, UniProt Q12809); type: biochemical
Sequence of hERG ion channel (Q12809 whole entry): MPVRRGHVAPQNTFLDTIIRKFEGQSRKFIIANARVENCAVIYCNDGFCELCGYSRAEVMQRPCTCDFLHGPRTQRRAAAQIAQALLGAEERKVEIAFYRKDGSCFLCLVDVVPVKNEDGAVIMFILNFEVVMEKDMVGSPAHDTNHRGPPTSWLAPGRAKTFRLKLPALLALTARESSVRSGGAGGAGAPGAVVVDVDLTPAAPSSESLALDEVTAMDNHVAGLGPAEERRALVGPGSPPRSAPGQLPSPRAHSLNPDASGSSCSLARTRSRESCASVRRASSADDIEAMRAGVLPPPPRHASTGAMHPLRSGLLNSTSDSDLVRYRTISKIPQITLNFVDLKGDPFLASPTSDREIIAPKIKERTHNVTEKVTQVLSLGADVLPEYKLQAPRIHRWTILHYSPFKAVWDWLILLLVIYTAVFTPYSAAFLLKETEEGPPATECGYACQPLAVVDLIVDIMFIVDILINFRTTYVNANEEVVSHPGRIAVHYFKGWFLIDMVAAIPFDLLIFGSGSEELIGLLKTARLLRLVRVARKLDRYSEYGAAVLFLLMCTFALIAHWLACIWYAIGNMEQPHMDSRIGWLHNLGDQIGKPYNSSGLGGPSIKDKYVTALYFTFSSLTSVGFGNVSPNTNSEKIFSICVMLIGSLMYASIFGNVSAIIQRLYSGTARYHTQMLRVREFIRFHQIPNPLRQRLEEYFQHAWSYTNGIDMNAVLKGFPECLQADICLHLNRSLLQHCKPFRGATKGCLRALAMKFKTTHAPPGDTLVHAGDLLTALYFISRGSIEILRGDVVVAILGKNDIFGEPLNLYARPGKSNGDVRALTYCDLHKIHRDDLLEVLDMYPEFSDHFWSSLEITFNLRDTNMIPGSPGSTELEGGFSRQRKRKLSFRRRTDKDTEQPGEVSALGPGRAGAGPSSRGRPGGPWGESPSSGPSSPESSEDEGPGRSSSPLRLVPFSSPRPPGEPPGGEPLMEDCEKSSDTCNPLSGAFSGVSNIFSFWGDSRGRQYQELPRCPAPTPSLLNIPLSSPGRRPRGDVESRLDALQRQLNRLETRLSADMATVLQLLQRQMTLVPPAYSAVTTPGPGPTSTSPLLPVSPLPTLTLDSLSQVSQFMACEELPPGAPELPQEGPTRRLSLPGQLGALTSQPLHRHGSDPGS
Description: as §2

TNFα = TNFα ELISA in CEM cells with IL-1 induction; type: cell-based; settings: Homo sapiens, CCRF-CEM; CEM cells (T lymphoblasts) with 1 μg/mL IL-1 induction, 48 hours; read-out: ELISA EC50, TNFa
Description: (§3) Cells were treated with vehicle control (0.5% DMSO) or compounds at the indicated concentration for 48 hours, and specific proteins in conditioned medium were quantified using commercially available ELISA kits (R&D Systems) according to the manufacturer’s recommendations. VEGF was quantified in HeLa cells under hypoxia (1% oxygen); Tumor necrosis factor alpha (TNFα) was quantified in CEM cells stimulated with 1 μg/mL interleukin-1 beta (Sigma); erythropoietin (EPO) was quantified in HepB3 cells under hypoxic conditions (1% oxygen); and granulocyte colony-stimulating factor (G-CSF), basic fibroblast growth factor (FGF-2) and insulin-like growth factor 1 (IGF-1) were quantified without induction in HT1080 cells, HeLa cells and HepG2 cells, respectively.
(§4) Several target proteins were chosen as selectivity counter-screens, including TNF-alpha, FGF-2, G-CSF, IGF-1, and EPO. Similar to that of VEGF, the expression levels of these proteins are post-transcriptionally regulated, either through a 5’-UTR IRES, 3’-UTR AU-rich elements (AREs), or both.

G-CSF = G-CSF ELISA in HT1080 cells under normoxia; type: cell-based; settings: Homo sapiens, HT-1080; HT1080 cells under normoxia (21% oxygen), 48 hours
Description: as §3, §4

[4] = Cytotoxicity, CellTiter-Glo, foreskin fibroblasts; type: cell-based; settings: human, primary foreskin fibroblasts, read-out: Cytotoxicity CC50, Foreskin Fibroblast
Description: The cytotoxicity of compounds was determined in peripheral blood mononuclear cells (PBMCs) and primary human foreskin fibroblasts, both purchased frozen from AllCells, Inc, CA. Cells were incubated with test compound at various concentrations in triplicate for a period of 3 days in 96-well plates. The cytotoxicity or inhibition of cell proliferation was determined using a standard CellTiter-Glo® Luminescent Cell Viability Assay (Promega, Madison, WI) that measures total cellular adenosine triphosphate (ATP) concentration as a function of cell viability. In addition, cytotoxicity assays were also performed in HeLa cells in parallel with VEGF ELISA to ensure that the inhibition of VEGF production in HeLa cells was not due to cytotoxicity.

[5] = system: A375 human melanoma cells; assay: Chick embryo tumor growth study; type: in vivo; settings: A375 on CAM, single intravenous injection 500 μg per embryo, excised 6 days after dose
Description: The chick embryo tumor growth assay was performed as described previously with some modifications. A375 human melanoma cells (5 x 10^6) log-phase growth in a total volume of 40 μL RPMI1640 medium were inoculated into the CAM of 10-day old chick embryos. After 24 h, the embryo received a single intravenous injection of 100 μL of compound (500 μg per embryo) or vehicle control (5% Cremaphor and 5% ethanol in PBS). The embryos were incubated for another 6 days, at which time the embryos were sacrificed. Tumors that formed at the primary site were excised, trimmed free of surrounding CAM tissue, and weighed.
To test the hypothesis that targeting VEGF post-transcriptionally can be a useful approach for the treatment of cancers, we initially evaluated the efficacy of the compounds in a chick embryo tumor growth model, known to be angiogenesis-dependent. Briefly, A375 human melanoma cells were seeded on the chorioallantoic membrane (CAM) of 10 day old chick embryos and, after 24 h, the embryo received a single intravenous injection of 100 μL of compound (500 μg per embryo) or vehicle control (5% Cremaphor and 5% ethanol in PBS). Tumors were grown for seven days, excised, and their wet weights were determined.
A375 human melanoma cells (5 x 10^6) were inoculated into the CAM of 10-days-old chick embryos. […]

Row | Structure (SMILES) | inhibition of PDE5 activity [1] | VEGF UTR selectivity compared to UTRs of HIF-1α and DPPIV (VEGF mRNA UTRs reporter) | Microsome metabolism - dog, % loss @ 1 h [2] | Microsome metabolism - rat, % loss @ 1 h [3] | HERG % inhibition @ 10 µM (hERG ion channel) | EC50 (TNFα) | EC50 (G-CSF) | CC50 at 72 hours [4] | tumor size (wet weight) vs no-treatment or vehicle controls [5]
1 | COc1ccc(C2c3[nH]c4ccc(Br)cc4c3CC3C(=O)N(C4CCCCC4)C(=S)N32)cc1.O=C(O)C(F)(F)F (stereo not drawn) [PTC-510, 9-bromo-2-cyclohexyl-5-(4-methoxyphenyl)-3-thioxo-2,3,5,6,11,11a-hexahydro-1H-imidazo[1’,5’:1,6]pyrido[3,4-b]indol-1-one trifluoroacetate] | did not inhibit PDE5 activity | VEGF UTR selective | 0% | 0% | 2% | – | – | – | –
2 | Brc1ccc2[nH]c3c(c2c1)CCCC3n1cccc1 (stereo not drawn) [PTC-858, 6-bromo-1-(1H-pyrrol-1-yl)-2,3,4,9-tetrahydro-1H-carbazole] | – | – | – | – | – | > 30 µM | > 30 µM | > 30 µM | significantly reduced tumor size
